The test system of data set [1] is Plasma. Briefly: Stability in mouse plasma at 500 ng/ml measured upto 120 mins. It is filed as ADME, cell-free. To be noted: 2 h.
Data set [2] concerns DRD. Briefly: Growth inhibition of human RAS-G12V overexpressing DRD cells after 48 hrs by alamar blue assay. It is filed as functional, cell-based. (In general: Alamar Blue is a resazurin reagent that responds to reducing activity.)
Data set [3] can be described thus: Metabolic stability in mouse liver microsomes assessed as compound remaining after 15 mins by LC-MS/MS analysis. It is filed as ADME. To be noted: read-out: Stability. (In general: Liver microsomes are vesicles of endoplasmic reticulum, rich in cytochrome P450 enzymes.)
A short description of data set [4]: Metabolic stability in mouse liver microsomes assessed as compound remaining after 45 mins by LC-MS/MS analysis. It counts as ADME. To be noted: read-out: Stability.
Data set [5] is described as follows: Growth inhibition of human HT1080 cells after 48 hrs by alamar blue assay. It is filed as functional. To be noted: HT-1080, 48 h.
The nature of data set [6]: Selectivity ratio of IC50 for human BJeH cells to IC50 for human RAS-G12V overexpressing BJeLR cells. To be noted: BJeH cells and RAS-G12V overexpressing BJeLR cells, read-out: Ratio IC50. It is filed as ADME, cell-based.
The nature of data set [7]: Metabolic stability in mouse liver microsomes assessed as compound remaining after 5 mins by LC-MS/MS analysis. It is filed as ADME. To be noted: for remaining at 5 min: liver microsomes, read-out: Stability; for Stability: microsomes, 5 min.
The nature of data set [8]: (§1) Half life in mouse liver microsomes by LC-MS/MS analysis. It is filed as ADME. To be noted: liver microsomes.
Data set [9] is described as follows: Metabolic stability in mouse liver microsomes assessed as compound remaining after 30 mins by LC-MS/MS analysis. It counts as ADME. To be noted: read-out: Stability.
The nature of data set [10]: Growth inhibition of human RAS-G12V overexpressing BJeLR cells after 48 hrs by alamar blue assay. It counts as functional, cell-based.
Data set [11] is described as follows: Solubility of compound in water. It counts as physicochemical. To be noted: buffer.
For data set [12], the target named is T1, Cystine/glutamate transporter (Homo sapiens, UniProt Q9UPY5).
T1 sequence (Q9UPY5 whole entry): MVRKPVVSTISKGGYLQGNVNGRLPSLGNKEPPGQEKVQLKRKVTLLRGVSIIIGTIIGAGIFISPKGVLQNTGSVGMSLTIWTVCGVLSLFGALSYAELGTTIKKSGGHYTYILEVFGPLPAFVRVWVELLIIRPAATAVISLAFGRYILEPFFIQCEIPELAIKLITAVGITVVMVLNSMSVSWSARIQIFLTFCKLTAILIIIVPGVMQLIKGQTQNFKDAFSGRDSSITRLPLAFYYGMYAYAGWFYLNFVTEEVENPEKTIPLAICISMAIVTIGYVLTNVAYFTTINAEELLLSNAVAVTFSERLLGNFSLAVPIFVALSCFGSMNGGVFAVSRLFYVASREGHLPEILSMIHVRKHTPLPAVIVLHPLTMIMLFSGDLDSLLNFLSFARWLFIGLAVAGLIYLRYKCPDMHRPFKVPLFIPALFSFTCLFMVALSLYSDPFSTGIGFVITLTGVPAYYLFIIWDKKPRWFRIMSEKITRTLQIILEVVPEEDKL
The experiment in a line: Inhibition of Xct in human CCF-STTG1 cells assessed as glutamate release after 2 hrs by fluorometry. It is filed as cell-based.

Data set [13] relates to Liver. Described as §1. It is filed as ADME. To be noted: microsomes.
The nature of data set [14]: Growth inhibition of human RAS-G12V overexpressing BJeLR cells. It is filed as functional.

In brackets after ≈: the same amount, converted by molar mass. Activity calls are given as the source filed them. Where only a bound is given, the exact number is not on record here.

The term GI50 denotes the concentration that inhibits growth by half. Read a high GI50 as less potent growth inhibition. In general, half-life refers to the time needed for the level to fall by half in the phase considered. Read a high half-life as slow decline. As a reminder, the IC50 is the concentration that gives 50% inhibition. On to `CC(C)Oc1ccc(C(=O)Cn2ccnc2)cc1-n1c(CN2CCN(C(=O)COc3ccc(Cl)cc3)CC2)nc2ccccc2c1=O`, for which the Stability result in data set [1] is given as “Stable”. For the same molecule, the inhibition entry in data set [2] is “Active”. For the same molecule, the remaining at […] in [3] stood at 82.9%. For the same molecule, the remaining at 0.75 h in [4] came out at 64.1%. The molecule further showed a GI50 in [5] of 314 nM. In data set [6], the selectivity ratio is 42. Moreover, the remaining at 5 min in data set [7] amounted to 89.3%. Further, the half-life in data set [8] amounted to 78.5 min. The remaining at 0.5 h in [9] came to 75.4%. Further, the IC50 in [10] turned out to be 3 nM.

Turning to `CC(C)Oc1ccc(C(=O)CN2CCNCC2)cc1-n1c(CN2CCN(C(=O)COc3ccc(Cl)cc3)CC2)nc2ccccc2c1=O`, the Stability entry in data set [1] is “Stable”. Further, in data set [3], the remaining at […] was 94.7%. The remaining at 0.75 h in data set [4] turned out to be 76.9%. Besides, the GI50 in data set [5] is 550 nM. Also, the remaining at 5 min in data set [7] was found to be 87.4%. In addition, the remaining at 0.5 h in data set [9] was found to be 76.2%.

As usually defined, the solubility is how much of the substance goes into solution per volume. Higher therefore signals much dissolved substance. In the case of `CC(C)Oc1ccc(CN2CCNCC2)cc1-n1c(CN2CCN(C(=O)COc3ccc(Cl)cc3)CC2)nc2ccccc2c1=O`, in [3], the remaining at […] stood at 79.2%. Also, the remaining at 0.75 h in data set [4] is 59.4%. Besides, the GI50 in data set [5] turned out to be 1200 nM. Further, in data set [6], the selectivity ratio came out at 3. For the same molecule, in [8], the half-life turned out to be 55.3 min. Also, in [9], the remaining at 0.5 h stood at 66.6%. Also, the solubility in data set [11] came out at 1400 µM (≈ 903 µg/mL). In addition, the IC50 in [10] came out at 300 nM; in [12], 800 nM.

As to `CC(C)Oc1ccc(C(=O)C(F)(F)F)cc1-n1c(CN2CCN(C(=O)COc3ccc(Cl)cc3)CC2)nc2ccccc2c1=O`, the selectivity ratio in [6] worked out at 8. The IC50 in data set [10] was 210 nM.

For the molecule `CC(C)Oc1ccc(C(=O)CN2CCOCC2)cc1-n1c(CN2CCN(C(=O)COc3ccc(Cl)cc3)CC2)nc2ccccc2c1=O`, the inhibition entry in data set [2] is “Active”. For the same molecule, in data set [3], the remaining at […] was 53.2%. In data set [4], the remaining at 0.75 h was 21.2%. Besides, the selectivity ratio in data set [6] is 5. For the same molecule, the remaining at 5 min in data set [7] came to 83.8%. The remaining at 0.5 h in data set [9] came to 30.6%. In [10], the midpoint of inhibition, the IC50, lay at 427 nM.

Turning to `CCOc1ccccc1-n1c(C(C)N2CCN(C(=O)COc3ccc(Cl)cc3)CC2)nc2ccccc2c1=O` (stereo unspecified) [ERASTIN], the inhibition result in data set [2] is “Active”. Further, the half-life in data set [8] was < 5 min. Besides, in data set [11], the solubility worked out at 90 µM (≈ 49.2 µg/mL).

Consider `CC(C)Oc1ccc(C(=O)CF)cc1-n1c(CN2CCN(C(=O)COc3ccc(Cl)cc3)CC2)nc2ccccc2c1=O`, for which the inhibition entry in data set [2] is “Active”. Moreover, the remaining at […] in data set [3] turned out to be 0%. Moreover, the remaining at 0.75 h in data set [4] came out at 0%. Further, the Stability in data set [7] is reported as 15.5%. Besides, the t1/2 in [13] was determined as 4.7 min. In addition, the remaining at 0.5 h in data set [9] stood at 0%.

Take `COc1ccc(CN2CCN(CC(=O)c3ccc(OC(C)C)c(-n4c(CN5CCN(C(=O)COc6ccc(Cl)cc6)CC5)nc5ccccc5c4=O)c3)CC2)cc1`: the inhibition entry in data set [2] is “Active”. Further, the remaining at […] in data set [3] was determined as 2.8%. The remaining at 0.75 h in [4] is 0.2%. Besides, the selectivity ratio in data set [6] came out at 13. Also, the remaining at 5 min in data set [7] was 29.7%. Also, in data set [9], the remaining at 0.5 h stood at 0.3%. In data set [10], it took 13 nM to reach half-maximal inhibition (IC50).

`CC(C)Oc1ccc(C(=O)CN2CCN(C)CC2)cc1-n1c(CN2CCN(C(=O)COc3ccc(Cl)cc3)CC2)nc2ccccc2c1=O`: the inhibition entry in data set [2] was “inactive”. Besides, in data set [6], the selectivity ratio is 1.9. Moreover, the IC50 in data set [10] was 474 nM.

Regarding `CC(=O)c1ccc(OC(C)C)c(-n2c(CN3CCN(C(=O)COc4ccc(Cl)cc4)CC3)nc3ccccc3c2=O)c1`, the inhibition result in data set [2] is “Active”. Also, in data set [3], the remaining at […] came out at 0%. The remaining at 0.75 h in [4] stood at 0%. This molecule yielded a GI50 in [5] of 59 nM. In addition, in data set [7], the Stability stood at 0.5%. In addition, in data set [13], the t1/2 is given as 3.8 min. Also, in data set [9], the remaining at 0.5 h was found to be 0%.

For the molecule `CC(C)Oc1ccc(C=O)cc1-n1c(CN2CCN(C(=O)COc3ccc(Cl)cc3)CC2)nc2ccccc2c1=O`, in data set [14], the GI50 came to 8 nM. Further, the selectivity ratio in data set [6] turned out to be 15. The molecule also returned a solubility in data set [11] of 80 µM (≈ 46 µg/mL). Further, the IC50 in data set [10] was determined as 8 nM.

`C=CCN1CCN(CC(=O)c2ccc(OC(C)C)c(-n3c(CN4CCN(C(=O)COc5ccc(Cl)cc5)CC4)nc4ccccc4c3=O)c2)CC1`: in data set [2], the inhibition entry is “inactive”. The remaining at […] in data set [3] worked out at 2.4%. Further, the remaining at 0.75 h in data set [4] came out at 0%. Further, the selectivity ratio in data set [6] was found to be 1.5. In [7], the remaining at 5 min was found to be 37.3%. Further, in data set [9], the remaining at 0.5 h stood at 0%. The molecule further had an IC50 in [10] of 195 nM.
